# Measurements reported in US20230085307A1, “PYRIDAZINONE COMPOUND AND HERBICIDE” (NISSAN CHEMICAL CORPORATION, priority 2019, published 2023).
# How the values were obtained:
# late watergrass = experiment: Test Example 2: herbicidal activity, application during weed generation under submerged conditions (Table 17, symbol A); format: in vivo, late watergrass (Echinochloa oryzicola); settings: AAH 320 g/ha; application during weed generation, submerged conditions
# Procedure, shortened: (§1)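 Mixed weed seedlings in alluvial soil under a 4 cm water layer, greenhouse-grown at 25–30° C. Compound given as a diluted emulsion into the floodwater at the 1–2 leaf stage; response graded after three weeks.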
# Japanese bulrush = experiment: Test Example 2: herbicidal activity, application during weed generation under submerged conditions (Table 17, symbol B); format: in vivo, Japanese bulrush (Schoenoplectus juncoides); settings: AAH 320 g/ha; application during weed generation, submerged conditions
# Procedure, shortened: as §1
# oval-leafed pondweed = experiment: Test Example 2: herbicidal activity, application during weed generation under submerged conditions (Table 17, symbol C); format: in vivo, oval-leafed pondweed (Monochoria vaginalis); settings: AAH 320 g/ha; application during weed generation, submerged conditions
# Procedure, shortened: as §1
# barnyard grass [1] = experiment: Test Example 3: herbicidal effect by foliage application, Wagner pot (Table 18, symbol H); format: in vivo, barnyard grass (Echinochloa crus-galli); settings: 320 g/ha
# Procedure, shortened: (§2)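 Plants were sown in alluvial soil held under 0.1–0.5 cm standing water and grown 14 days in a greenhouse at 25–30 °C. An emulsifiable formulation, water-diluted to the set dose, was then sprayed onto the foliage, and effects were scored three weeks later using previously defined criteria.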
# Chinese sprangletop = experiment: Test Example 3: herbicidal effect by foliage application, Wagner pot (Table 18, symbol D); format: in vivo, chinese sprangletop (Leptochloa chinensis); settings: 320 g/ha
# Procedure, shortened: as §2
# rice flat sedge = experiment: Test Example 3: herbicidal effect by foliage application, Wagner pot (Table 18, symbol E); format: in vivo, rice flat sedge (Cyperus iria); settings: 320 g/ha
# Procedure, shortened: as §2
# southern crabgrass [2] = experiment: Test Example 4: herbicidal effect by soil treatment (Table 19, symbol F); format: in vivo, southern crabgrass (Digitaria ciliaris); settings: 320 g/ha
# Procedure, shortened: (§3)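 Seeds were sown in sterilized diluvial soil and covered with about 1.5 cm of soil. An emulsion formulation diluted with water to a predetermined herbicide amount was sprayed evenly onto the soil surface. Plants grew in a greenhouse at 25° C. to 30° C., and the effect was scored three weeks after application using criteria from an earlier test.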
# green foxtail [3] = experiment: Test Example 4: herbicidal effect by soil treatment (Table 19, symbol G); format: in vivo, green foxtail (Setaria viridis); settings: 320 g/ha
# Procedure, shortened: as §3
# barnyard grass [4] = experiment: Test Example 4: herbicidal effect by soil treatment (Table 19, symbol H); format: in vivo, barnyard grass (Echinochloa crus-galli); settings: 320 g/ha
# Procedure, shortened: as §3
# wild oat [5] = experiment: Test Example 4: herbicidal effect by soil treatment (Table 19, symbol I); format: in vivo, wild oat (Avena fatua); settings: 320 g/ha
# Procedure, shortened: as §3
# blackgrass [6] = experiment: Test Example 4: herbicidal effect by soil treatment (Table 19, symbol J); format: in vivo, blackgrass (Alopecurus myosuroides); settings: 320 g/ha
# Procedure, shortened: as §3
# Italian ryegrass [7] = experiment: Test Example 4: herbicidal effect by soil treatment (Table 19, symbol K); format: in vivo, Italian ryegrass (Lolium multiflorum); settings: 320 g/ha
# Procedure, shortened: as §3
# windgrass [8] = experiment: Test Example 4: herbicidal effect by soil treatment (Table 19, symbol L); format: in vivo, windgrass (Apera spica-venti); settings: 320 g/ha
# Procedure, shortened: as §3
# velvetleaf [9] = experiment: Test Example 4: herbicidal effect by soil treatment (Table 19, symbol M); format: in vivo, velvetleaf (Abutilon theophrasti); settings: 320 g/ha
# Procedure, shortened: as §3
# redroot pigweed = experiment: Test Example 4: herbicidal effect by soil treatment (Table 19, symbol N); format: in vivo, redroot pigweed (Amaranthus retroflexus); settings: 320 g/ha
# Procedure, shortened: as §3
# lambsquarters [10] = experiment: Test Example 4: herbicidal effect by soil treatment (Table 19, symbol O); format: in vivo, lambsquarters (Chenopodium album); settings: 320 g/ha
# Procedure, shortened: as §3
# chickweed = experiment: Test Example 4: herbicidal effect by soil treatment (Table 19, symbol P); format: in vivo, common chickweed (Stellaria media); settings: 320 g/ha
# Procedure, shortened: as §3
# persian speedwell [11] = experiment: Test Example 4: herbicidal effect by soil treatment (Table 19, symbol R); format: in vivo, Persian speedwell (Veronica persica); settings: 320 g/ha
# Procedure, shortened: as §3
# southern crabgrass [12] = experiment: Test Example 5: herbicidal effect by foliage application, plastic box (Table 20, symbol F); format: in vivo, southern crabgrass (Digitaria ciliaris); settings: foliage application, 320 g/ha, 3 weeks after application
# Procedure, shortened: (§4)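 Plants sown in sterilized diluvial soil and grown 14 days in a greenhouse at 25° C to 30° C, then sprayed on the foliage with the compound's emulsion diluted in water to a predetermined herbicide amount. Injury to weeds and crops scored three weeks after application on a visual rating scale.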
# green foxtail [13] = experiment: Test Example 5: herbicidal effect by foliage application, plastic box (Table 20, symbol G); format: in vivo, green foxtail (Setaria viridis); settings: foliage application, 320 g/ha, 3 weeks after application
# Procedure, shortened: as §4
# barnyard grass [14] = experiment: Test Example 5: herbicidal effect by foliage application, plastic box (Table 20, symbol H); format: in vivo, barnyard grass (Echinochloa crus-galli); settings: foliage application, 320 g/ha, 3 weeks after application
# Procedure, shortened: as §4
# wild oat [15] = experiment: Test Example 5: herbicidal effect by foliage application, plastic box (Table 20, symbol I); format: in vivo, wild oat (Avena fatua); settings: foliage application, 320 g/ha, 3 weeks after application
# Procedure, shortened: as §4
# blackgrass [16] = experiment: Test Example 5: herbicidal effect by foliage application, plastic box (Table 20, symbol J); format: in vivo, blackgrass (Alopecurus myosuroides); settings: foliage application, 320 g/ha, 3 weeks after application
# Procedure, shortened: as §4
# Italian ryegrass [17] = experiment: Test Example 5: herbicidal effect by foliage application, plastic box (Table 20, symbol K); format: in vivo, Italian ryegrass (Lolium multiflorum); settings: foliage application, 320 g/ha, 3 weeks after application
# Procedure, shortened: as §4
# windgrass [18] = experiment: Test Example 5: herbicidal effect by foliage application, plastic box (Table 20, symbol L); format: in vivo, windgrass (Apera spica-venti); settings: foliage application, 320 g/ha, 3 weeks after application
# Procedure, shortened: as §4
# velvetleaf [19] = experiment: Test Example 5: herbicidal effect by foliage application, plastic box (Table 20, symbol M); format: in vivo, velvetleaf (Abutilon theophrasti); settings: foliage application, 320 g/ha, 3 weeks after application
# Procedure, shortened: as §4
# lambsquarters [20] = experiment: Test Example 5: herbicidal effect by foliage application, plastic box (Table 20, symbol O); format: in vivo, lambsquarters (Chenopodium album); settings: foliage application, 320 g/ha, 3 weeks after application
# Procedure, shortened: as §4
# false cleavers = experiment: Test Example 5: herbicidal effect by foliage application, plastic box (Table 20, symbol Q); format: in vivo, false cleavers (Galium spurium); settings: foliage application, 320 g/ha, 3 weeks after application
# Procedure, shortened: as §4
# persian speedwell [21] = experiment: Test Example 5: herbicidal effect by foliage application, plastic box (Table 20, symbol R); format: in vivo, Persian speedwell (Veronica persica); settings: foliage application, 320 g/ha, 3 weeks after application
# Procedure, shortened: as §4
smiles,measurement,setting,value
CCOc1ccccc1-c1sc2ccc(F)cc2c1-c1c(O)c(C)nn(C)c1=O [2-028],"herbicidal effect rating, A: late watergrass",late watergrass,3 (Herbicidal rate of 40% or more and less than 70%)
same,"herbicidal effect rating, B: Japanese bulrush",Japanese bulrush,1 (Herbicidal rate of 5% or more and less than 20%)
same,"herbicidal effect rating, C: oval-leafed pondweed",oval-leafed pondweed,3 (Herbicidal rate of 40% or more and less than 70%)
same,"herbicidal effect on H (barnyard grass), rating 0-5",barnyard grass [1],4 (Herbicidal rate of 70% or more and less than 90%)
same,"herbicidal effect on D (Chinese sprangletop), rating 0-5",Chinese sprangletop,3 (Herbicidal rate of 40% or more and less than 70%)
same,"herbicidal effect on E (rice flat sedge), rating 0-5",rice flat sedge,5 (Herbicidal rate of 90% or more (almost completely withered))
same,"herbicidal effect rating, F: southern crabgrass",southern crabgrass [2],3 (Herbicidal rate of 40% or more and less than 70%)
same,"herbicidal effect rating, G: green foxtail",green foxtail [3],2 (Herbicidal rate of 20% or more and less than 40%)
same,"herbicidal effect rating, H: barnyard grass",barnyard grass [4],3 (Herbicidal rate of 40% or more and less than 70%)
same,"herbicidal effect rating, I: wild oat",wild oat [5],0 (Herbicidal rate of 5% or less (almost no effect))
same,"herbicidal effect rating, J: blackgrass",blackgrass [6],0 (Herbicidal rate of 5% or less (almost no effect))
same,"herbicidal effect rating, K: Italian ryegrass",Italian ryegrass [7],0 (Herbicidal rate of 5% or less (almost no effect))
same,"herbicidal effect rating, L: windgrass",windgrass [8],0 (Herbicidal rate of 5% or less (almost no effect))
same,"herbicidal effect rating, M: velvetleaf",velvetleaf [9],3 (Herbicidal rate of 40% or more and less than 70%)
same,"herbicidal effect rating, N: redroot pigweed",redroot pigweed,5 (Herbicidal rate of 90% or more (almost completely withered))
same,"herbicidal effect rating, O: lambsquarters",lambsquarters [10],3 (Herbicidal rate of 40% or more and less than 70%)
same,"herbicidal effect rating, P: chickweed",chickweed,4 (Herbicidal rate of 70% or more and less than 90%)
same,"herbicidal effect rating, R: persian speedwell",persian speedwell [11],5 (Herbicidal rate of 90% or more (almost completely withered))
same,effect on southern crabgrass (F),southern crabgrass [12],3 (Herbicidal rate of 40% or more and less than 70%)
same,effect on green foxtail (G),green foxtail [13],4 (Herbicidal rate of 70% or more and less than 90%)
same,effect on barnyard grass (H),barnyard grass [14],4 (Herbicidal rate of 70% or more and less than 90%)
same,effect on wild oat (I),wild oat [15],3 (Herbicidal rate of 40% or more and less than 70%)
same,effect on blackgrass (J),blackgrass [16],4 (Herbicidal rate of 70% or more and less than 90%)
same,effect on Italian ryegrass (K),Italian ryegrass [17],3 (Herbicidal rate of 40% or more and less than 70%)
same,effect on windgrass (L),windgrass [18],4 (Herbicidal rate of 70% or more and less than 90%)
same,effect on velvetleaf (M),velvetleaf [19],4 (Herbicidal rate of 70% or more and less than 90%)
same,effect on lambsquarters (O),lambsquarters [20],3 (Herbicidal rate of 40% or more and less than 70%)
same,effect on false cleavers (Q),false cleavers,5 (Herbicidal rate of 90% or more (almost completely withered))
same,effect on persian speedwell (R),persian speedwell [21],5 (Herbicidal rate of 90% or more (almost completely withered))
